The numbers were not newly measured in patent US9492446B2, “Manufacturing method of solid dispersion containing itraconazole” (CTC BIO, Inc., priority 2004, dated 2016), which cites them from elsewhere.

The conditions of data set [1]: AIDS patients, higher pH in stomach; oral.

Consider `CCC(C)n1ncn(-c2ccc(N3CCN(c4ccc(OCC5COC(Cn6cncn6)(c6ccc(Cl)cc6Cl)O5)cc4)CC3)cc2)c1=O` (centres unmarked) [Itraconazole], for which the water-solubility result was “less than 1 ug/ml”. The “absorption of itraconazole relative to that of normal people” value in data set [1] is listed as “no more than 50%”.
